“And” between values parts separate entries of the source, which are not always exact repeats. Identical values can stand only once.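 Briefly, cells in 96-well plates were exposed to five compound concentrations for 48 h, and endpoints were estimated by linear interpolation. Abbreviation: GI50, concentration required for 50% inhibition of growth.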 The source made the active and inactive calls. Rule as the data show it: active = GI50 up to about 1.1 µM and inactive = higher.
Experiments:
Assay in all cases: inhibition of tumour cell growth, NCI panel, 48 h
[1] = system: SF-539
[2] = system: PC-3
[3] = system: RXF 393
[4] = system: OVCAR-5
[5] = system: COLO 205
[6] = system: OVCAR-8
[7] = system: Malme-3M
[8] = system: HT-29
[9] = system: DU-145
[10] = system: HCC 2998
[11] = system: NCI-H522
[12] = system: MDA-MB-435
[13] = system: A549
[14] = system: IGROV-1
[15] = system: NCI-H23
[16] = system: SF-295
[17] = system: NCI/ADR-RES
[18] = system: SK-MEL-5
[19] = system: MCF7
[20] = system: UACC-62

SMILES | GI50 [1] | GI50 [2] | GI50 [3] | GI50 [4] | GI50 [5] | GI50 [6] | GI50 [7] | GI50 [8] | GI50 [9] | GI50 [10] | GI50 [11] | GI50 [12] | GI50 [13] | GI50 [14] | GI50 [15] | GI50 [16] | GI50 [17] | GI50 [18] | GI50 [19] | GI50 [20]
OC(CBr)C(O)C(O)C(O)CBr (stereo not drawn) | 46.7 µM (inactive) and 49.8 µM (inactive) | > 81.1 µM (inactive) | > 100 µM (inactive) and > 88.9 µM (inactive) | > 57 µM (inactive) | > 53.6 µM (inactive) | > 100 µM (inactive) and 59.4 µM (inactive) | > 100 µM (inactive) and > 85.5 µM (inactive) | > 100 µM (inactive) and > 56 µM (inactive) | 12.7 µM (inactive) | > 100 µM (inactive) and > 72.8 µM (inactive) | > 67.1 µM (inactive) and > 48.6 µM (inactive) | > 61.2 µM (inactive) | 19 µM (inactive) and 36.9 µM (inactive) |  |  |  |  |  |  | 
CCC(CC)C(=O)OC[n+]1ccc(-c2c(COC(=O)NC(C)C)c(COC(=O)NC(C)C)c3n2CCC3)cc1 | > 100 µM (inactive) | > 100 µM (inactive) | > 100 µM (inactive) |  | > 100 µM (inactive) | > 100 µM (inactive) |  |  |  | > 100 µM (inactive) | > 100 µM (inactive) |  | > 100 µM (inactive) | > 100 µM (inactive) | > 100 µM (inactive) | > 100 µM (inactive) | > 100 µM (inactive) | > 100 µM (inactive) | > 100 µM (inactive) | 
O=C(c1ccc2ccccc2c1O)N1CCCCC1 | > 100 µM (inactive) | > 100 µM (inactive) | > 100 µM (inactive) |  | > 100 µM (inactive) | 68.2 µM (inactive) |  | > 100 µM (inactive) | > 100 µM (inactive) | > 100 µM (inactive) |  | > 100 µM (inactive) |  | > 100 µM (inactive) | 32.4 µM (inactive) | 92.9 µM (inactive) | 39 µM (inactive) | 34 µM (inactive) | > 100 µM (inactive) | > 100 µM (inactive)
CCN1CCC(O)(c2ccc(Oc3ccc(C)cc3)cc2)C(C(=O)c2ccc(Oc3ccc(C)cc3)cc2)C1 (stereo not drawn) |  | 10.9 µM (inactive) | 2.81 µM (inactive) | 13.9 µM (inactive) | 12.1 µM (inactive) | 13.7 µM (inactive) | 14.6 µM (inactive) | 3.33 µM (inactive) | 7.28 µM (inactive) | 7.91 µM (inactive) |  | 11.6 µM (inactive) | 12.8 µM (inactive) | 12.5 µM (inactive) | 13.7 µM (inactive) | 5.69 µM (inactive) | 13.8 µM (inactive) | 8.04 µM (inactive) | 2.42 µM (inactive) | 12.1 µM (inactive)
C/C(Cl)=N\OC(=O)Nc1ccccc1C(F)(F)F | > 100 µM (inactive) | > 100 µM (inactive) |  | 42.6 µM (inactive) | 21.6 µM (inactive) | 38.9 µM (inactive) | 20.9 µM (inactive) | 18.9 µM (inactive) | > 100 µM (inactive) | > 100 µM (inactive) |  |  | > 100 µM (inactive) | > 100 µM (inactive) | > 100 µM (inactive) | > 100 µM (inactive) | 19.3 µM (inactive) | > 100 µM (inactive) | 14.9 µM (inactive) | 
O=C(C/C=C/c1ccccc1)c1ccccc1 | 25 µM (inactive) |  | 15.8 µM (inactive) | 28.6 µM (inactive) | 22.5 µM (inactive) | 15.7 µM (inactive) |  | 18.2 µM (inactive) | 16 µM (inactive) | 18.3 µM (inactive) | 16.9 µM (inactive) | 18 µM (inactive) | 10.8 µM (inactive) | 23.5 µM (inactive) | 15.1 µM (inactive) | 44.4 µM (inactive) | 15.3 µM (inactive) | 19.5 µM (inactive) | 15 µM (inactive) | 12.6 µM (inactive)
Nc1ccc(C2NC(=O)Cc3c2ccc2ccccc32)cc1 (stereo not drawn) | 90.6 µM (inactive) | 45.8 µM (inactive) |  | > 100 µM (inactive) | 76.2 µM (inactive) | 56.1 µM (inactive) | 47 µM (inactive) | > 100 µM (inactive) | > 100 µM (inactive) | 69 µM (inactive) | > 100 µM (inactive) | 68.5 µM (inactive) | 33.2 µM (inactive) | > 100 µM (inactive) | > 100 µM (inactive) | 45.5 µM (inactive) |  | 61.8 µM (inactive) | 76 µM (inactive) | 66.1 µM (inactive)
CCCCS(=O)(=O)Nc1ccc(Nc2c3ccccc3nc3ccccc23)c(OC)c1 | 1.08 µM (active) |  | 4.39 µM (inactive) | 13.7 µM (inactive) | 5.78 µM (inactive) | 2 µM (inactive) | 2.21 µM (inactive) | 1.67 µM (inactive) |  | 3.21 µM (inactive) | 5.33 µM (inactive) |  | 0.232 µM (active) | 5.57 µM (inactive) | 1.11 µM (active) | 0.902 µM (active) | 5.36 µM (inactive) | 5.2 µM (inactive) | 1.13 µM (inactive) | 1.78 µM (inactive)
CC(=O)O/N=C/c1c2ccccc2cc2ccccc12 | 51.1 µM (inactive) | > 100 µM (inactive) | 21.7 µM (inactive) | > 100 µM (inactive) | > 100 µM (inactive) | 19.1 µM (inactive) | 47 µM (inactive) | 57.7 µM (inactive) | > 100 µM (inactive) |  |  | 38 µM (inactive) | 47.9 µM (inactive) |  | 76.6 µM (inactive) | 47.4 µM (inactive) | 56.8 µM (inactive) | 58.9 µM (inactive) | 78.2 µM (inactive) | 40.9 µM (inactive)
CCc1[nH]c(=O)c2oc3cc4ccccc4cc3c2c1C(=O)O | > 10 µM (inactive) | > 10 µM (inactive) | > 10 µM (inactive) | > 10 µM (inactive) |  | > 10 µM (inactive) | > 10 µM (inactive) | > 10 µM (inactive) | 3.91 µM (inactive) | > 10 µM (inactive) | > 10 µM (inactive) |  | > 10 µM (inactive) | 0.001 µM (active) |  | > 10 µM (inactive) | > 10 µM (inactive) |  |  | 
COC(=O)C1CCCN1C(=O)OC(C)(C)C (stereo not drawn) |  | > 100 µM (inactive) | > 100 µM (inactive) | > 100 µM (inactive) | > 100 µM (inactive) |  |  | > 100 µM (inactive) | > 100 µM (inactive) | > 100 µM (inactive) |  | > 100 µM (inactive) | > 100 µM (inactive) | > 100 µM (inactive) | > 100 µM (inactive) | > 100 µM (inactive) | > 100 µM (inactive) | > 100 µM (inactive) | > 100 µM (inactive) | > 100 µM (inactive)
COC(=O)NNc1c([N+](=O)[O-])cnn(-c2ccccc2)c1=O | 3.29 µM (inactive) | 1.79 µM (inactive) | 3.73 µM (inactive) | 4.44 µM (inactive) | 2.11 µM (inactive) | 1.78 µM (inactive) | 2.47 µM (inactive) | 2.04 µM (inactive) | 5.62 µM (inactive) | 5.36 µM (inactive) | 0.995 µM (active) | 1.66 µM (inactive) | 12.4 µM (inactive) | 17.9 µM (inactive) | 2.67 µM (inactive) | 3.46 µM (inactive) |  | 4.07 µM (inactive) | 3.99 µM (inactive) | 2.11 µM (inactive)
O=S(=O)(O)Nc1ccc(-c2nc3ccccc3s2)cc1Cl | > 100 µM (inactive) | > 100 µM (inactive) | > 100 µM (inactive) | 16.1 µM (inactive) | > 100 µM (inactive) | > 100 µM (inactive) | > 100 µM (inactive) | > 100 µM (inactive) | > 100 µM (inactive) | > 100 µM (inactive) | > 100 µM (inactive) | > 100 µM (inactive) | > 100 µM (inactive) | 1.67 µM (inactive) | > 100 µM (inactive) | > 100 µM (inactive) | > 100 µM (inactive) | > 100 µM (inactive) |  | > 100 µM (inactive)
Nc1nc(O)c2ncn(C3OC(CO)C(O)C3O)c2n1 (stereo not drawn) | 13.8 µM (inactive) |  | 6.84 µM (inactive) | 111 µM (inactive) | 57 µM (inactive) |  |  | 10.9 µM (inactive) |  | 17.1 µM (inactive) | 41.9 µM (inactive) |  |  | > 77.4 µM (inactive) | 17.4 µM (inactive) | 71.6 µM (inactive) | 18.4 µM (inactive) | 53.6 µM (inactive) | 33.8 µM (inactive) | 13.3 µM (inactive)
Cc1nc(C)c(C(=O)NNC(=O)C[N+](C)(C)C)cc1C(=O)NNC(=O)C[N+](C)(C)C | > 100 µM (inactive) |  | > 100 µM (inactive) | > 100 µM (inactive) | > 100 µM (inactive) | > 100 µM (inactive) |  | > 100 µM (inactive) | > 100 µM (inactive) | > 100 µM (inactive) |  | > 100 µM (inactive) | > 100 µM (inactive) | > 100 µM (inactive) | > 100 µM (inactive) | > 100 µM (inactive) | > 100 µM (inactive) | > 100 µM (inactive) | > 100 µM (inactive) | > 100 µM (inactive)
Cc1cc(O)c2c(c1)C(=O)c1c(c(O)cc(O)c1-c1c(O)cc(O)c3c1C(=O)c1cc(C)cc(O)c1C3=O)C2=O [SKYRIN] | 10.6 µM (inactive) |  | 19.3 µM (inactive) | 38 µM (inactive) | 24.8 µM (inactive) | 8.26 µM (inactive) | 15 µM (inactive) | 13.1 µM (inactive) |  | 11.4 µM (inactive) | 17.1 µM (inactive) |  | 8.87 µM (inactive) | 12.9 µM (inactive) | 13.1 µM (inactive) | 9.25 µM (inactive) | 35.2 µM (inactive) | 9.44 µM (inactive) | 15 µM (inactive) | 10.4 µM (inactive)
